Test results published in patent US5756537A (Parkash S. Gill, M.D., Inc., priority 1996, dated 1998).
Converted amounts (≈) assume the structure as drawn. “Also recorded” adds a separate entry of the source. Where two headings read alike, the source gives them in different places.

Tests used:
[1] = test system: AIDS-KS spindle cell lines, KS Y-1 P105; assay: Cell proliferation assay (cell counting, day 5 or 6); assay type: cell-based
Description: FIG. 1. […] At that time surviving cells were assayed by cell counting.
AIDS-KS spindle cell lines were seeded at a density of 1.0×10^4 cells/well in a 24-well plate in KS medium. […] The cell counts were performed on day 5 or 6 using a Coulter Particulate Counter (Hialeah, Fla.).

KS Y-1 cells = assay: In vivo KS tumor model in nude mice; parameters: species or system Balbc/nu mouse; conditions: 10 mg/kg intraperitoneally, days 1, 5 and 9; measured day 14 and 21
Description: FIG. 2. […] Tumor size was measured on days 14 and 21.
KS cell lines that propagate in the immunodeficient mouse were treated with paclitaxel. 1.0×10^7 cells were implanted subcutaneously in each Balbc/nu (Charles River) mouse.

Kaposi's sarcoma [2] = assay: Example 3: HIV-negative person with KS; assay type: in vivo, human
Description: Patient, a very fragile person presented with KS. […] Other medical problems included hypertension, cardiac arrhythmia, congestive heart failure, and hypothyroidism.
Prior therapy included radiation therapy. The radiated areas included both feet and eye lids. […] Cytotoxic chemotherapy was given with combination chemotherapy consisting of bleomycin, vincristine and adriamycin.
Premedication included dexamethasone, diphenhydramine, and cimetidine.

Kaposi's sarcoma [3] = assay: Example 4: person with KS; assay type: in vivo, human
Description: Due to very extensive disease, a representative area of tumor was monitored.

Kaposi's sarcoma [4] = assay: Example 5: pilot study of ten patients; assay type: in vivo, human; conditions: 100 mg/m^2 over 3 hr every 2 weeks
Description: Seven of these ten patients had previously been treated with one or more previous regimens cytotoxic chemotherapy regimens. All were severely immunodeficient with history of opportunistic infection in six, advanced KS with numerous cutaneous KS lesions, involvement of visceral disease (which is generally fatal) in five.

AIDS-KS [5] = assay: Phase II trial, strata 2 (no prior systemic chemotherapy); assay type: in vivo, human; conditions: 100 mg/m^2 iv every 2 weeks
Description: Strata 2 of the study consisted of 20 patients with advanced AIDS-KS who had not received any prior systemic chemotherapy. The demographic characteristics and the results of treatment are provided below (Table 4-6).

[6] = Paclitaxel peak levels, AUC and relation to effect and side effects in KS patients; conditions: human, blood, iv
Description: (§1) This area is calculated using the equation: [formula] where λi is the exponent of the i-th exponential term, and Ci is the initial concentration of the i-th component of the curve. Curve fitting with this model yields the parameters Ci, C2, C3 λ1, λ2 and λ3. The half-lives (t1/2 s) are calculated from the equations t1/2 (α)=0.693/λ1, t1/2 (β)=0.693/λ2 and t1/2 (γ)=0.693/λ3. The total area under the curve (AUC0→.infin.)) is calculated using the linear trapezoidal method with extrapolation of the terminal phase to infinity (Clast /λ3), where Clast is the last measured concentration.
(§2) Typically, maintenance therapy is maintained for a minimum of 3-5 cycles.

Kaposi's sarcoma [7] = assay: as above
Description: as §1, §2

Kaposi's sarcoma [8] = assay: Clinical results with paclitaxel in KS, overall
Description: The mode or route of administration can be parenteral: e.g., intravenous; intraperitoneal; subcutaneous; oral; or topical for cutaneous tumors.
All patients had advanced KS defined by more than 25 cutaneous lesions, or presence of visceral disease, or lymphedema. Other eligibility criteria included adequate hepatic, renal, and bone marrow function defined as a bilirubin<2.0 mg/dl, GOT<x upper limit of normal, creatinine<2.1 mg/dl, granulocytes>1000/mm^3, and platelets>75,000/mm^3. Patients could not have had prior therapy for their KS within the last 2 weeks. The dosage and schedule was 100 mg/m^2 intravenously every 2 weeks.

AIDS-KS [9] = test system: AIDS-KS
bone marrow suppression [10] = conditions: human, in vivo
[11] = test system: ovarian and breast cancer; conditions: cited from earlier work
Kaposi's sarcoma [12] = conditions: […]^2 to 175 mg/m^2 over three hours, every 21 days; cited from earlier work
bone marrow suppression [13] = assay: G-CSF use in the clinical trial patients
[14] = 75 mg/m^2 every two weeks, three hour infusion
[15] = 33 evaluable, 100 mg/m^2 iv every 2 weeks
[16] = of patients with no G-CSF prior to paclitaxel

CC(=O)O[C@H]1C(=O)[C@@]2(C)[C@H]([C@H](OC(=O)c3ccccc3)[C@]3(O)C[C@H](OC(=O)[C@H](O)[C@@H](NC(=O)c4ccccc4)c4ccccc4)C(C)=C1C3(C)C)[C@]1(OC(C)=O)CO[C@@H]1C[C@@H]2O [paclitaxel]
IC50 ([1]; P1(0.5), KS Y-1 P105, treated day 1 and 3, counted day 5 or 6): 2 to 3 ng/mL (≈ 2.34 to 3.51 nM)
sensitivity of KS cells to paclitaxel in vitro ([1]; in vitro): as sensitive to paclitaxel as human ovarian cell lines; also recorded: unusual sensitivity
tumor growth (KS Y-1 cells): markedly inhibited
disease status after one cycle (Kaposi's sarcoma [2]; 35 mg/m^2, after relapse): stable
number of doses to complete tumor resolution (Kaposi's sarcoma [2]; 75 mg/m^2 every two weeks): five
period to complete tumor resolution (Kaposi's sarcoma [2]; 75 mg/m^2 every two weeks): eight
response (Kaposi's sarcoma [2]; [14]): remarkable response with resolution of KS, oozing, foul smell and edema
toxicities experienced (Kaposi's sarcoma [2]; [14]): skin itching and moderate hair loss
bone marrow suppression and neutropenia (Kaposi's sarcoma [2]; 75 mg/m^2 every two weeks, three hour infusion, no G-CSF): lack of bone marrow suppression and accompanying neutropenia
biopsy of the area of skin tumor (Kaposi's sarcoma [2]; after 75 mg/m^2 every two weeks): lack of KS pathologically
remission after the last combination chemotherapy treatment (Kaposi's sarcoma [2]; paclitaxel alone and in combination with liposomally encapsulated doxorubicin for five months): eight
KS lesions three months after initiation of the lower dose (Kaposi's sarcoma [3]; 35 mg/m^2 every 2 weeks): completely flat (Clinical Complete Remission)
tolerability (Kaposi's sarcoma [3]; 35 mg/m^2 every 2 weeks): well tolerated, and their hair grew back while on therapy
hair loss (Kaposi's sarcoma [3]; 75 mg/m^2): severe hair loss
response to the first dose (Kaposi's sarcoma [3]; 75 mg/m^2): rapid response
lesion count on the left forearm (Kaposi's sarcoma [3]; after single dose of 75 mg/m^2, 32 lesions prior to paclitaxel): 12 lesions
raised lesions on the left forearm (Kaposi's sarcoma [3]; after single dose of 75 mg/m^2, all 32 raised prior to therapy): two
patients with partial or complete response (Kaposi's sarcoma [4]): five of the ten
responses in patients who had previously failed chemotherapy (Kaposi's sarcoma [4]): Responses were observed
responses in patients with otherwise fatal pulmonary disease (Kaposi's sarcoma [4]): Responses were also observed
tolerability (Kaposi's sarcoma [4]): well tolerated
tumor associated edema (Kaposi's sarcoma [4]): resolution of tumor associated edema was observed
Cycles to response, range (AIDS-KS [5]): 3-9 cycles
Median cycles to response (AIDS-KS [5]): 3 cycles
Complete response (count) (AIDS-KS [5]; 19 evaluable): 1
Complete response (percent) (AIDS-KS [5]; 19 evaluable): 5%
Minimal response/stable disease (count) (AIDS-KS [5]; 19 evaluable): 6
Minimal response/stable disease (percent) (AIDS-KS [5]; 19 evaluable): 32%
Partial response (count) (AIDS-KS [5]; 19 evaluable): 12
Partial response (percent) (AIDS-KS [5]; 19 evaluable): 63%
Progression (count) (AIDS-KS [5]; 19 evaluable): 0
Anemia, Grade 2 (count) (AIDS-KS [5]; n = 20): 6
Anemia, Grade 2 (percent) (AIDS-KS [5]; n = 20): 30%
Anemia, Grade 3 (count) (AIDS-KS [5]; n = 20): 0
Anemia, Grade 4 (count) (AIDS-KS [5]; n = 20): 0
Diarrhea, Grade 3 (AIDS-KS [5]; n = 20): 0
Diarrhea, Grade 4 (AIDS-KS [5]; n = 20): 0
Fevers, Grade 3 (AIDS-KS [5]; n = 20): 1
Fevers, Grade 4 (AIDS-KS [5]; n = 20): 0
Myalgia, Grade 3 (AIDS-KS [5]; n = 20): 0
Nausea/Vomiting, Grade 1/2 (AIDS-KS [5]; n = 20): 8
Neuropathy, Grade 3 (AIDS-KS [5]; n = 20): 0
Neuropathy, Grade 4 (AIDS-KS [5]; n = 20): 0
Neutropenia, Grade 2 (count) (AIDS-KS [5]; n = 20): 4
Neutropenia, Grade 2 (percent) (AIDS-KS [5]; n = 20): 20%
Neutropenia, Grade 3 (count) (AIDS-KS [5]; n = 20): 2
Neutropenia, Grade 3 (percent) (AIDS-KS [5]; n = 20): 10%
Neutropenia, Grade 4 (count) (AIDS-KS [5]; n = 20): 3
Neutropenia, Grade 4 (percent) (AIDS-KS [5]; n = 20): 15%
Rash ± Pruritus, Grade 1/2 (AIDS-KS [5]; n = 20): 9
Rash ± Pruritus, Grade 3 (AIDS-KS [5]; n = 20): 0
Thrombocytopenia, Grade 2 (count) (AIDS-KS [5]; n = 20): 0
Thrombocytopenia, Grade 3 (count) (AIDS-KS [5]; n = 20): 0
Thrombocytopenia, Grade 4 (count) (AIDS-KS [5]; n = 20): 0
Cmax [6]: 100 to 1000 nM
length of time peak levels are achieved (Kaposi's sarcoma [7]; 50-100 mg/m^2, three hour bolus, would be expected): less than 15 hours
myelosuppression (Kaposi's sarcoma [7]; AUC 1-4 μM/hour, three hour bolus of 50-100 mg/m^2 every 14 days): not observed
unwanted hematological and non-hematological side effects (Kaposi's sarcoma [7]; peak levels maintained at 15 hours or less): absent
neutropenia and other side effects (Kaposi's sarcoma [7]; threshold level 0.1-1 μM for shorter periods, AUC 1-4 μM/hour): reduce neutropenia and other side effects
effectiveness in KS versus other tumors (Kaposi's sarcoma [8]; 100 mg/m^2 every 2 weeks): more effective therapeutically to KS compared to any other tumor studied thus far in the clinic
tolerability (Kaposi's sarcoma [8]; 100 mg/m^2 every 2 weeks): extremely well tolerated
median duration of response (Kaposi's sarcoma [8]; 35-100 mg/m^2 every 10-16 days): greater than 20 weeks
median time to achieve partial response (Kaposi's sarcoma [8]; 35-100 mg/m^2 every 10-16 days): 6-10 weeks
median time to achieve partial response (cycles) (Kaposi's sarcoma [8]; 35-100 mg/m^2 every 10-16 days): 3-5 cycles
side effects (Kaposi's sarcoma [8]; aside from mild to moderate hair loss and occasional other mild toxicities): the lack of side effects is extraordinary
duration of response as reflected by the median number of cycles tolerated, versus all previously studied drugs (Kaposi's sarcoma [8]; compared to all previously studied drugs and combinations): two fold longer
duration of response, range (Kaposi's sarcoma [8]; up to): up to 60 weeks
Cycles to response, range (AIDS-KS [9]; 100 mg/m^2 iv every 2 weeks): 3-9 cycles
Median cycles to response (AIDS-KS [9]; 100 mg/m^2 iv every 2 weeks): 5 cycles
median duration of response (AIDS-KS [9]; 100 mg/m^2 iv every 2 weeks): ≥ 5 months
Complete response (count) (AIDS-KS [9]; [15]): 0
Minimal response/stable disease (count) (AIDS-KS [9]; [15]): 12
Minimal response/stable disease (percent) (AIDS-KS [9]; [15]): 34%
Partial response (count) (AIDS-KS [9]; [15]): 23
Partial response (percent) (AIDS-KS [9]; [15]): 66%
Progression (count) (AIDS-KS [9]; [15]): 0
Median Survival (AIDS-KS [9]; not reached): > 6 months
activity in patients with prior systemic chemotherapy (AIDS-KS [9]; preliminary results): confirmed
Any G-CSF use (percent) (bone marrow suppression [10]): 69%
Never required G-CSF (percent) (bone marrow suppression [10]): 48%
patients who did not require G-CSF (bone marrow suppression [10]): approximately 50%
dose generally required to obtain responses ([11]; 3-96 hour infusion, every 3-4 weeks): 175-200 mg/m^2
threshold peak level necessary for pharmaceutical effect ([11]; Wiernak, et al.): 0.1 µM
myelosuppression (Kaposi's sarcoma [12]): increased incidents of myelosuppression
Any G-CSF use (fraction) (bone marrow suppression [13]; n = 43): 30/43
Never required G-CSF (fraction) (bone marrow suppression [13]; [16]): 13/27
Required G-CSF after start of paclitaxel therapy (fraction) (bone marrow suppression [13]; [16]): 14/27
bone marrow suppression (including neutropenia) (bone marrow suppression [13]; patients who did not require G-CSF): not observed

bleomycin
pneumonitis (Kaposi's sarcoma [2]; combination chemotherapy of bleomycin, vincristine and adriamycin): pneumonitis with bilateral diffuse infiltration
